# Laboratory results taken from patent US20040072775A1, “Enhancing the sensitivity of tumor cells to therapies” (priority 1994, published 2004).
# Assays:
# Format in all cases: cell-based, human
# [1] = test system: T98 Gp53 cells; test: clonogenic/growth assay after one hour cisplatin exposure, cells transduced with wild-type p53 gene
# Description: 1). Cells. T98G glioblastoma cells (Mercer et al., “Negative growth regulation in a glioblastoma tumor cell line that conditionally expresses human wild-type p53.” (1990) Proc. Natl. Acad. Sci., USA, 87:6166-6170) were obtained from ATCC and cultured at 37° C. in 10% CO2 in Dulbecco's Modified Eagles Medium supplemented with 10% heat inactivated fetal bovine serum, gentamycin, nonessential amino acids, and sodium pyruvate.
# 2). Plasmids. A plasmid (pLp53RNL) containing the wild-type p53 gene and the neomycin (G418) resistance gene was used. The plasmid pLp53RNL was kindly provided by Dr. Martin Haas (University of California, San Diego), and has been previously described (Cheng et al., “Suppression of acute lymphoblastic leukemia by the human wild-type p53 gene,” (1992) Cancer Res., 53:222-226). This plasmid carries the retroviral sequence Lp53RNL in which wild-type p53 expression is driven from the Moloney murine leukemia virus (MoMLV) LTR. The neomycin resistance gene is driven from the Rous Sarcoma Virus (RSV) promoter.
# 3). Transfections. The plasmid was introduced into T98G cells using cationic liposomes. […]
# 5). […] After 7 days, cells were counted or stained with crystal violet. In the latter case, absorbance at 540 nm is proportional to cell viability. […] Clones were counted 7 to 10 days later by staining in 0.5% methylene blue, 70% ETOH. […]
# [2] = test system: T98G glioblastoma cells; test: clonogenic assay after one hour cisplatin exposure, parental cells; settings: clones counted 7 to 10 days later, read-out: concentration of cisplatin needed to achieve a 50% reduction in colony count
# Description: 1). Cells. T98G glioblastoma cells (Mercer et al., “Negative growth regulation in a glioblastoma tumor cell line that conditionally expresses human wild-type p53.” (1990) Proc. Natl. Acad. Sci., USA, 87:6166-6170) were obtained from ATCC and cultured at 37° C. in 10% CO2 in Dulbecco's Modified Eagles Medium supplemented with 10% heat inactivated fetal bovine serum, gentamycin, nonessential amino acids, and sodium pyruvate. […] 5). Control parental T98G cells and T98 Gp53 cells which had been adapted 2 weeks to culture in the absence of the antibiotics G418 were plated in 24 well plates at about 2×10^4 cells per well. The next day they were exposed for one hour to varying concentrations of cisplatin (a chemotherapeutic agent) from 10 to 40 μM in increments of 10 μM. The cisplatin was removed after one hour and replaced with complete medium (DMEM+10% Fetal Bovine Serum) and cells were allowed to grow for 7 days. After 7 days, cells were counted or stained with crystal violet. In the latter case, absorbance at 540 nm is proportional to cell viability. For clonogenic assays, cells were replated following treatment in 6 well plates at 500-1000 cells per well. Clones were counted 7 to 10 days later by staining in 0.5% methylene blue, 70% ETOH. Colony counts from p53 transfectants and parental T98G glioblastoma cells were compared. […] Subsequent assays confirmed this increased sensitivity. […]
# [3] = test system: empty vector-transduced T98G cells; test: clonogenic assay after one hour cisplatin exposure, empty vector-transduced cells; settings: clones counted 7 to 10 days later, read-out: concentration of cisplatin needed to achieve a 50% reduction in colony count
smiles,measurement,setting,value
N.N.[Cl][Pt][Cl] [cisplatin],IC50,"[1]; cells transduced with wild-type p53 gene, one hour exposure, clones counted 7 to 10 days later, read-out: concentration of cisplatin needed to achieve a 50% reduction in colony count",15 to 20 µM
same,sensitivity of T98 Gp53 cells to the effects of cisplatin compared with parental T98G cells (FIG. 1),"[1]; cisplatin 10 to 40 μM, one hour",considerably more sensitive
same,IC50,[2],~30 µM
same,IC50,[3],~30 µM
